# Experimental data reported in patent publication US20240139220A1, “TREATMENT OF HPV INFECTION” (priority 2022, published 2024).
# Columns and labels:
# [1] = In vitro tissue permeation test in human cervical tissue; assay type: in vitro ADME; details: 0.1% gel, FIG. 116
# Excerpt: (§1) FIG. 116 is an in vitro tissue permeation test in vaginal tissue comparing Compound II to ABI-1968. […] Bars B and C show the tissue penetration of a 0.1% Compound II gel in […]. […] This may be a contributing factor to the performance of ABI-1968 in clinical studies. […] This is described in Example 41.
# [2] = Ex vivo permeation and penetration across porcine vaginal tissue (Franz diffusion cells, IVPT); assay type: in vitro ADME; details: porcine vaginal tissue, FIG. 116; Compound II 0.1% gel, ABI-1968 1% and 3% formulations
# Excerpt: as §1
# Freshly harvested porcine vaginal tissue was procured from local slaughterhouse in an ice box. The vaginal tissue was cut open to expose the mucosal surface and tissue was cleaned by gentle flow of PBS pH 7.4. The porcine vaginal tissue was cut into circular portions (approximately 2 cm^2) with help of a […] punch.
# The circular portion of tissue was sandwiched between two chambers of a Franz diffusion cell with an active diffusion area of 1 cm^2, and the mucosal layer was exposed to the donor chambers. The resistance across porcine vaginal tissue was measured using a wave form generator to ensure the integrity of the tissue segment used for the permeation study. Porcine vaginal tissue with resistance of ≥3 KΩ.cm^2 was used for study. The receiver chamber was filled with 8 ml of 5% solutol PBS 7.4 pH, which was stirred at 600 rpm with a 3 mm magnetic stir bar and the temperature was maintained at 37° C. with a circulating water bath.
# The ˜200 mg of gel was filled into tared 1 mL syringe and gel was dispensed to donor chamber. The gel was spread on to mucosal surface with pre weighed applicator. After loading and spreading of the gel onto surface of mucosal surface, the weight of 1 mL syringe and applicator was noted to determine the exact amount of gel loaded into donor chamber.
# Time course (2 h, 4 h and 8 h) porcine vaginal permeation studies were performed. After loading gel, 500 μL samples were withdrawn from the receiver compartment at different time intervals and each time an equal volume of fresh receiver media was used to replace withdrawn samples. The sample withdrawn at each time interval were stored immediately in −20° C. until analysis. After 2, 4 and 8 h, the formulation was removed from the donor chamber with help of syringe and cleaned with cotton swab. The tissue was removed and washed gently with wash solution (50% methanol in water) 5 times and alternatively cleaning with cotton swab.
# An 8 mm punch of active diffusion area of washed porcine vaginal tissue was removed, weighed and transferred into a tube. This tube was immediately placed into dry ice for ˜15 min. After specified time, tissue was removed and placed in precooled dish. The tissue was minced into smaller pieces on a dish with a precooled surgical blade. The minced tissue was transferred to sample tubes and dish was rinsed with 1 ml of 5% solutol in PBS 7.4 pH and transferred to same tissue sample tube. These tubes were stored in −70° C. until analysis.
# The samples stored at −20° C. was removed and thawed at room temperature for 30 min. The drug from receptor fluid was centrifuged at 13000 rpm for 5 min and to 200 μL of supernatant equal volume of extraction solvent was added. These samples were centrifuged at 13000 rpm for 5 min and supernatant was transferred into vials for analysis.
# The minced tissue samples stored at −70° C. were removed and thawed at room temperature for ˜90 min. The samples were kept for shaking at room temperature for 4 h in BioShaker. After 4 h, samples were centrifuged at 13000 rpm for 5 min. To 100 μL of supernatant, 400 μL of extraction solvent was added and vortexed for 2 min. […]
# [3] = Hygroscicity by Dynamic Vapor Sorption (DVS) at 25° C.; assay type: physicochemical
# Experimental: Hygroscopicity was investigated by DVS at 25° C., using the following method: […]
structure (smiles),measurement,setting,value
CCOC(=O)[C@H](C)N[P@@](=O)(COCCn1cnc2c(OC)nc(N)nc21)OCc1ccccc1.O=C(O)/C=C/C(=O)O [Compound II],Tissue penetration,[1],high tissue penetration
same,Tissue penetration,[2],high tissue penetration
same,XRPD pattern after humidity cycle,[3]; cycle of 40-0-95-0-45% relative humidity,does not change
same,Water content retained,[3]; exposed to a cycle of 40-0-95-0-45% relative humidity,about 0.25%
